Measurements from ChEMBL document CHEMBL1152596, “Inhibition of serotonin and norepinephrine reuptake and inhibition of phosphodiesterase by multi-target inhibitors as potential agents for depression” (Bioorg Med Chem, 2009).

Key:
[1] = biological target: T1, Sodium-dependent dopamine transporter (Homo sapiens, UniProt Q01959)
Description: Inhibition of [3H]DA reuptake at human DAT expressed in HEK293 cells

[2] = biological target: T2, Sodium-dependent serotonin transporter (Homo sapiens, UniProt P31645)
Description: Inhibition of [3H]5HT reuptake at human SERT expressed in HEK293 cells

[3] = biological target: T3, Sodium-dependent noradrenaline transporter (Homo sapiens, UniProt P23975)
T3 sequence (P23975 whole entry): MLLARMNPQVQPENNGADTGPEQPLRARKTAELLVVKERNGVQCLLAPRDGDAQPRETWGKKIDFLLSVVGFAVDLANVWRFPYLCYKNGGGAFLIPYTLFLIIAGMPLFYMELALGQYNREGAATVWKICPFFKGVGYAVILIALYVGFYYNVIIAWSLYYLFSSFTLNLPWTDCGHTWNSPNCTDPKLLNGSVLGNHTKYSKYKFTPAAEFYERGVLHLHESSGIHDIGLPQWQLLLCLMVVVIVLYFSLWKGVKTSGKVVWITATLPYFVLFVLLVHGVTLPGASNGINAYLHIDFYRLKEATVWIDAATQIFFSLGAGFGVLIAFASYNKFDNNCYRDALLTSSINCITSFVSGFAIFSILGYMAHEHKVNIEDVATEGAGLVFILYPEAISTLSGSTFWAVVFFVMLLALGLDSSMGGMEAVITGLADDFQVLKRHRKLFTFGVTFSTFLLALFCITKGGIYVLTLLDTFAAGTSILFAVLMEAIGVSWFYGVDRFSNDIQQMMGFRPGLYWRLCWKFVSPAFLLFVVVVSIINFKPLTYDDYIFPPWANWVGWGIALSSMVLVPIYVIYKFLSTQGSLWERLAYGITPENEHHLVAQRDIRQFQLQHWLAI
Description: Inhibition of [3H]NE reuptake at human NET expressed in HEK cells

[4] = biological target: 3',5'-cyclic-AMP phosphodiesterase 4D (Homo sapiens, UniProt Q08499)
Sequence of 3',5'-cyclic-AMP phosphodiesterase 4D (Q08499 whole entry): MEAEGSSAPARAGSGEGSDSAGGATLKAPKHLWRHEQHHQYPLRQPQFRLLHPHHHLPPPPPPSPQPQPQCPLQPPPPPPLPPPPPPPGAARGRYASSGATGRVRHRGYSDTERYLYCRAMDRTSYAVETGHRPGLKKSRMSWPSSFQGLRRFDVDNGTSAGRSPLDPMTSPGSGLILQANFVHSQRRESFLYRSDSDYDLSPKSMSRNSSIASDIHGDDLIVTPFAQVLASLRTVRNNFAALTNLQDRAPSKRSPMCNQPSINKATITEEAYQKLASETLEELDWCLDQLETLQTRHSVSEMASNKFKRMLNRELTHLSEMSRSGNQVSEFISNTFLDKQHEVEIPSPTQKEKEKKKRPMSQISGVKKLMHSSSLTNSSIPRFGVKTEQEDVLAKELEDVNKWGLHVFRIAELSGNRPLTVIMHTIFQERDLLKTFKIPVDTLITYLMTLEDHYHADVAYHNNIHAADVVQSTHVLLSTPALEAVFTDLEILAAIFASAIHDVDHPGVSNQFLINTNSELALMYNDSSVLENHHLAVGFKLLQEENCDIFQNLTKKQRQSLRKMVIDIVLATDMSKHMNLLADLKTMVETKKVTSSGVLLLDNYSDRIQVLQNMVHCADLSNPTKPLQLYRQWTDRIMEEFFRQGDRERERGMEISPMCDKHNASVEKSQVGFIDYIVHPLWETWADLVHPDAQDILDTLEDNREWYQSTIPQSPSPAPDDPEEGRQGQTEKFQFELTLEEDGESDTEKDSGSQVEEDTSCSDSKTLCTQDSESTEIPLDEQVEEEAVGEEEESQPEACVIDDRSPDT
Description: Inhibition of PDE4D2 assessed as cAMP hydrolysis

[5] = biological target: T1, Sodium-dependent dopamine transporter; experiment: biochemical
Description: Displacement of [125I]RTI-55 from human recombinant DAT expressed in HEK293 cells

[6] = biological target: T2, Sodium-dependent serotonin transporter; experiment: biochemical
Description: Displacement of [125I]RTI-55 from human recombinant SERT expressed in HEK293 cells

[7] = biological target: T3, Sodium-dependent noradrenaline transporter; experiment: biochemical
Description: Displacement of [125I]RTI-55 from human recombinant NET expressed in HEK293 cells by scintillation counting

T2 sequence (P31645 whole entry): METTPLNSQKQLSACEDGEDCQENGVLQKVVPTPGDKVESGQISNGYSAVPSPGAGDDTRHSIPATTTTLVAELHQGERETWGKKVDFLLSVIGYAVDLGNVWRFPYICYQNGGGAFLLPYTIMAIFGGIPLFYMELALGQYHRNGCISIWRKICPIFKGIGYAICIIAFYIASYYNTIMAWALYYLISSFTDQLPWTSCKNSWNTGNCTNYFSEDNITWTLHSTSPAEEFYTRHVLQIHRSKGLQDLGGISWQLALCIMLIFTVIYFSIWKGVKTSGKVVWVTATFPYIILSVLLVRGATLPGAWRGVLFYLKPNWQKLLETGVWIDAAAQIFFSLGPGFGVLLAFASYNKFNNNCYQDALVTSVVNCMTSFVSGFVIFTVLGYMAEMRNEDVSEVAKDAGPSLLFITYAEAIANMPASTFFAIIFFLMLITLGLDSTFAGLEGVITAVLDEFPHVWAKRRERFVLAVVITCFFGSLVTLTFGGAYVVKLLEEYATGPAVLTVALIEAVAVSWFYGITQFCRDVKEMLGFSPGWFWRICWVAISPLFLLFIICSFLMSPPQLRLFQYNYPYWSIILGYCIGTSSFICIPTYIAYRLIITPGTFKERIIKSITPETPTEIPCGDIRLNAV
T1 sequence (Q01959 whole entry): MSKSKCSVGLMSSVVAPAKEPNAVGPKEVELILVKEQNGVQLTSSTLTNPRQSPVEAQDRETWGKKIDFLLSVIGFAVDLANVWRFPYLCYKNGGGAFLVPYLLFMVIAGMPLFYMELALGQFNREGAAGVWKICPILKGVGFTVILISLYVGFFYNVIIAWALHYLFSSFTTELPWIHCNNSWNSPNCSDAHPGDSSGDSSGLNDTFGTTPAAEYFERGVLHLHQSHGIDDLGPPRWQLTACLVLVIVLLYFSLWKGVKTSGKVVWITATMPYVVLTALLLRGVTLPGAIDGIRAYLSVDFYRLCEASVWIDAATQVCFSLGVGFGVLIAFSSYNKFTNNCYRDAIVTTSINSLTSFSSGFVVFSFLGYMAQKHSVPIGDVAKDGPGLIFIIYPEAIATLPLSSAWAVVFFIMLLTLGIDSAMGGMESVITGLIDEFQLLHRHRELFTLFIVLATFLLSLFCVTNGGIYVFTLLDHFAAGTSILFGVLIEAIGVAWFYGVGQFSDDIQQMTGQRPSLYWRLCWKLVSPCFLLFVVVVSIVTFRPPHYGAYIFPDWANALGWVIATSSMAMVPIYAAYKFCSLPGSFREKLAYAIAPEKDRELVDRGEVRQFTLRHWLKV

Row | SMILES | IC50 [1] | IC50 [2] | IC50 [3] | IC50 [4] | Ki [5] | Ki [6] | Ki [7]
1 | COc1ccc(C2=NNC(=O)[C@@H]3CC=CC[C@H]23)cc1OC (relative stereo) | > 100000 nM | > 100000 nM | > 100000 nM | 213 nM | > 100000 nM | > 100000 nM | > 100000 nM
2 | NCC[C@H](Oc1cccc2ccccc12)c1cccs1 [(S)-NORDULOXETINE] | > 10000 nM | 25.6 nM | 445 nM | > 100000 nM | > 10000 nM | 18 nM | 2400 nM

Now from value to molecule:

Row | IC50 [1] | IC50 [2] | IC50 [3] | IC50 [4] | Ki [5] | Ki [6] | Ki [7] | SMILES
3 | 1790 nM | 442 nM | 2100 nM | 45 nM | 857 nM | 127 nM | 3240 nM | COc1ccc(C2=NN(CCCCCNCC[C@@H](Oc3cccc4ccccc34)c3cccs3)C(=O)[C@@H]3CC=CC[C@H]23)cc1OC
4 | 6630 nM | 404 nM | 2190 nM | 23 nM | 4600 nM | 726 nM | > 100000 nM | COc1ccc(C2=NN(CCCCCNCC[C@H](Oc3cccc4ccccc34)c3cccs3)C(=O)[C@@H]3CC=CC[C@H]23)cc1OC
5 | > 10000 nM | 6.8 nM | 188 nM | > 100000 nM | 3550 nM | 8.3 nM | 953 nM | NCC[C@@H](Oc1cccc2ccccc12)c1cccs1 [R-NORDULOXETINE]
